In one experiment the test system is ARE (HepG2-ARE-C8 cells). Nature of the experiment: ARE luciferase reporter assay. It counts as cell-based. The conditions noted are these: for Luciferase reporter activity (fold of induction): HepG2-ARE-C8 cells, 12 hrs.
Experiment [1] has as its target Keap1-Nrf2 protein-protein interaction (Keap1 Kelch domain protein, FITC-9mer Nrf2 polypeptide probe) (Homo sapiens (Human), UniProt Q14145). As to the kind of experiment: Fluorescence polarization-based Keap1-Nrf2 protein-protein interaction inhibition experiment (FP experiment). It counts as binding. The note with it: for IC50: FP experiment, Keap1 Kelch domain, FITC-9mer Nrf2 probe.
Description: Fluorescence Polarization-Based Keap1-Nrf2 Protein-Protein Interaction Inhibition Experiment (FP Experiment)
The instrument used in the FP experiment was the SpectraMax Multi-Mode Microplate Reader (Molecular Devices), and the excitation and emission wavelengths of the instrument were selected based on the corresponding fluorophore.
Before the test, the system was mixed well and incubated for 30 minutes at room temperature. […] In this study, the fluorescence intensities in horizontal and vertical directions (F∥ and F^⊥) were used to calculate the millipolarization value (mP), so as to reflect the changes of the polarized light.
where Pmax, Pmin, and Pobs represent the polarization value in the well containing Keap1 and the fluorescence probe, the polarization value in the well containing the fluorescence probe, and the polarization value of the well containing the inhibitor, respectively. The IC50 of the compounds was calculated from curve of the inhibition rate against the inhibitor concentration.

Chain of Keap1-Nrf2 protein-protein interaction (Keap1 Kelch domain protein, FITC-9mer Nrf2 polypeptide probe) (Q14145 321-609): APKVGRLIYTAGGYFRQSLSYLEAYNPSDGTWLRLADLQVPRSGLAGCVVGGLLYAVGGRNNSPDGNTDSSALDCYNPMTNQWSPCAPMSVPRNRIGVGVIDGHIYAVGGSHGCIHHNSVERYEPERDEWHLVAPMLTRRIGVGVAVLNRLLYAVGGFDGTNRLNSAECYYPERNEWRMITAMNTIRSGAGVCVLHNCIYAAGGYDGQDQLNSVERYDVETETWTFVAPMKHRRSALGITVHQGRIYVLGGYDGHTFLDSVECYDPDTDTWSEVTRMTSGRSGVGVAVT
Description for ARE (HepG2-ARE-C8 cells): ARE Luciferase Reporter Assay
100 μL was added to a 96-well microtiter plate and incubated overnight.
(2) 2 times of the desired concentration of the test compound was formulated in a culture medium, and 100 μL was added respectively to the corresponding wells. tBHQ was used as a positive control and DMSO was used as a negative control. The 96-well microtiter plate added with the compound was incubated for 12 hrs at a constant temperature of 37° C., 5% CO2, and saturated humidity.
(3) The 5× lysis buffer in the Luciferase Assay Kit was formulated into a 1× lysis buffer for future use.
(4) The 96-well microtiter plate was removed, the medium was aspirated from the wells, the cells were washed with 1×PBS buffer, and the PBS buffer was aspirated off after the wash. […] After the lysis, the lysate was stood for 3-5 min, and 20 μL of the lysate supernatant was aspirated into a corresponding 96-well white plate.
(5) The 96-well white plate was positioned in the Thermo Scientific Luminoskan Ascent Chemiluminescence Micropore Reader. 100 μL of a luciferase assay reagent (obtained by uniformly mixing 1 bottle of luciferase assay substrate in the luciferase assay kit and 1 bottle of luciferase detection buffer) was added to each well before the test, and the plate was read within 1 min after the test reagent was added.

With “2-(4-(2,4,6-trimethyl-N-(2-(hydroxylamino)-2-oxoethylbenzenesulfonamido) naphthalen-1-oxy)-benzeneacetic acid [Compound I-13]”, the “Luciferase reporter activity (fold of induction)” value was 1.07 fold of induction in the experiment on ARE (HepG2-ARE-C8 cells) (0.1 μmol/L), 1.16 fold of induction with ARE (HepG2-ARE-C8 cells) (1 μmol/L) and 1.21 fold of induction with ARE (HepG2-ARE-C8 cells) (10 μmol/L). The molecule also showed an IC50 in experiment [1] of 980 nM.
Regarding “2-(4-(2,4,6-trimethylbenzenesulfonamido)naphthalen-1-oxy)benzeneacetic acid [Compound I-11]”, the “Luciferase reporter activity (fold of induction)” value is recorded as 1.02 fold of induction in the experiment with ARE (HepG2-ARE-C8 cells) (0.1 μmol/L), 1.34 fold of induction in the experiment on ARE (HepG2-ARE-C8 cells) (1 μmol/L) and 1.14 fold of induction in the experiment with ARE (HepG2-ARE-C8 cells) (10 μmol/L). For the same molecule, 2430 nM corresponded to half-maximal inhibition in experiment [1] (IC50).
On the same counts, the results for “2-(4-(2,4,6-trimethylbenzenesulfonamido)naphthalen-1-yl)oxy)-2-benzeneacetic acid [Compound I-2]” are 1.21 fold of induction, 1.10 fold of induction, 1.05 fold of induction and 1320 nM.
On the same counts, the results for “3-(4-((N-carboxymethyl)-2,4,6-trimethylbenzenesulfonamido)naphthalen-1-yloxy)-(4-methoxyphenyl)propionic acid [Compound I-20]” are 1.02 fold of induction, 1.13 fold of induction, 1.28 fold of induction and 830 nM.
With `COc1ccc(S(=O)(=O)N(CC(=O)O)c2ccc(Oc3ccccc3CC(=O)O)c3ccccc23)cc1` [Compound I-1], the “Luciferase reporter activity (fold of induction)” value in the experiment with ARE (HepG2-ARE-C8 cells) (0.1 μmol/L) is recorded as 0.98 fold of induction; in the experiment with ARE (HepG2-ARE-C8 cells) (1 μmol/L), 1.10 fold of induction; in the experiment on ARE (HepG2-ARE-C8 cells) (10 μmol/L), 1.07 fold of induction. Further, in experiment [1], the midpoint of inhibition, the IC50, lay at 2280 nM.
For the molecule `Cc1cc(C)c(S(=O)(=O)N(CC(=O)O)c2ccc(Oc3ccccc3CC(=O)O)c3ccccc23)c(C)c1` [Compound I-3], the “Luciferase reporter activity (fold of induction)” value with ARE (HepG2-ARE-C8 cells) (0.1 μmol/L) is 0.95 fold of induction; with ARE (HepG2-ARE-C8 cells) (1 μmol/L) it was 1.03 fold of induction; in the experiment with ARE (HepG2-ARE-C8 cells) (10 μmol/L) it was 1.31 fold of induction. Also, inhibition in experiment [1] was half-maximal at 580 nM (IC50).
For `CC(C)(C)c1ccc(S(=O)(=O)N(CC(=O)O)c2ccc(OC(C(=O)O)c3ccccc3)c3ccccc23)cc1` (stereo not shown) [Compound I-4], in that order: 1.04 fold of induction, 1.12 fold of induction, 1.13 fold of induction and 980 nM.
Consider `COc1ccc(S(=O)(=O)N(CC(=O)O)c2ccc(Oc3ccccc3CC(=O)O)c3ccccc23)cc1OC` [Compound I-5], for which the “Luciferase reporter activity (fold of induction)” value is 0.92 fold of induction in the experiment with ARE (HepG2-ARE-C8 cells) (0.1 μmol/L), 1.05 fold of induction in the experiment on ARE (HepG2-ARE-C8 cells) (1 μmol/L) and 1.10 fold of induction with ARE (HepG2-ARE-C8 cells) (10 μmol/L). In experiment [1], this molecule yielded an IC50 of 2300 nM.
In the case of `COc1cc(OC)c(S(=O)(=O)N(CC(=O)O)c2ccc(OC(C(=O)O)c3ccccc3)c3ccccc23)c(OC)c1` (stereo not shown) [Compound I-6], the results for the “Luciferase reporter activity (fold of induction)” value in the experiment on ARE (HepG2-ARE-C8 cells) (0.1 μmol/L), in the experiment with ARE (HepG2-ARE-C8 cells) (1 μmol/L) and in the experiment with ARE (HepG2-ARE-C8 cells) (10 μmol/L) were 1.01 fold of induction, 1.26 fold of induction and 1.09 fold of induction, respectively. In addition, in experiment [1], the midpoint of inhibition, the IC50, lay at 640 nM.
`CC(=O)Nc1ccc(S(=O)(=O)N(CC(=O)O)c2ccc(Oc3ccccc3CC(=O)O)c3ccccc23)cc1` [Compound I-7]: the “Luciferase reporter activity (fold of induction)” value in the experiment on ARE (HepG2-ARE-C8 cells) (0.1 μmol/L) was 0.97 fold of induction; in the experiment with ARE (HepG2-ARE-C8 cells) (1 μmol/L) it was 1.01 fold of induction; with ARE (HepG2-ARE-C8 cells) (10 μmol/L), 1.03 fold of induction. In addition, it took 5230 nM to reach half-maximal inhibition in experiment [1] (IC50).
For `O=C(O)CN(c1ccc(OC(C(=O)O)c2ccccc2)c2ccccc12)S(=O)(=O)c1ccc([N+](=O)[O-])cc1` (stereo not shown) [Compound I-8, 2-(4-(N-(carboxymethyl)-4-nitrobenzenesulfonamido))naphthalen-1-oxy) benzeneacetate], in that order: 1.05 fold of induction, 1.23 fold of induction, 1.14 fold of induction and 4790 nM.
With `O=C(O)CN(c1ccc(OC(C(=O)O)c2ccccc2)c2ccccc12)S(=O)(=O)c1ccc(F)cc1` (stereo not shown) [Compound I-9], the “Luciferase reporter activity (fold of induction)” value in the experiment on ARE (HepG2-ARE-C8 cells) (0.1 μmol/L) was 1.02 fold of induction; with ARE (HepG2-ARE-C8 cells) (1 μmol/L), 1.13 fold of induction; in the experiment on ARE (HepG2-ARE-C8 cells) (10 μmol/L), 1.08 fold of induction. Half-maximal inhibition in experiment [1] (IC50) required 5160 nM.
On the same counts, the results for `O=C(O)Cc1ccccc1Oc1ccc(N(CC(=O)O)S(=O)(=O)c2ccc(C(F)(F)F)cc2)c2ccccc12` [Compound I-10] are 0.92 fold of induction, 0.95 fold of induction, 1.10 fold of induction and 6660 nM.
For `Cc1cc(C)c(S(=O)(=O)N(Cc2nn[nH]n2)c2ccc(Oc3ccccc3CC(=O)O)c3ccccc23)c(C)c1` [Compound I-12, 2-(4-((N-(2H-tetrazol-5-yl)methyl)-2,4,6-trimethylbenzenesulfonamido)naphthalen-1-oxy)benzeneacetic acid], in that order: 1.05 fold of induction, 1.19 fold of induction, 1.36 fold of induction and 830 nM.
For `CCOc1ccc(C(Oc2ccc(N(CC(=O)O)S(=O)(=O)c3c(C)cc(C)cc3C)c3ccccc23)C(=O)O)cc1` (stereo not shown) [Compound I-15], the figures for the “Luciferase reporter activity (fold of induction)” value with ARE (HepG2-ARE-C8 cells) (0.1 μmol/L), in the experiment with ARE (HepG2-ARE-C8 cells) (1 μmol/L) and in the experiment on ARE (HepG2-ARE-C8 cells) (10 μmol/L) were 1.33 fold of induction, 2.05 fold of induction and 3.92 fold of induction, respectively. For the same molecule, the “fold of induction compared with the positive control tBHQ” value in the experiment with ARE (HepG2-ARE-C8 cells) (10 μM) was “significantly higher than that of the positive control tBHQ”. For the same molecule, in experiment [1], the “FP activity compared with the positive control Nrf2 9mer polypeptide” value is listed as “better than the positive control”. This molecule also displayed an IC50 in experiment [1] of 84 nM.
In the case of `CC(=O)Nc1ccc(C(Oc2ccc(N(CC(=O)O)S(=O)(=O)c3c(C)cc(C)cc3C)c3ccccc23)C(=O)O)cc1` (stereo not shown) [Compound I-16], the “Luciferase reporter activity (fold of induction)” value is on record as 1.21 fold of induction with ARE (HepG2-ARE-C8 cells) (0.1 μmol/L), 1.98 fold of induction in the experiment with ARE (HepG2-ARE-C8 cells) (1 μmol/L) and 3.23 fold of induction in the experiment on ARE (HepG2-ARE-C8 cells) (10 μmol/L). The “FP activity compared with the positive control Nrf2 9mer polypeptide” value in experiment [1] is “better than the positive control”. This molecule also came in with an IC50 in experiment [1] of 90 nM.
With `COc1cc(OC)c(S(=O)(=O)N(CC(=O)O)c2ccc(OC(C(=O)O)c3ccc(OC(C)C)cc3)c3ccccc23)c(OC)c1` (stereo not shown) [Compound I-17], the “Luciferase reporter activity (fold of induction)” value in the experiment on ARE (HepG2-ARE-C8 cells) (0.1 μmol/L) is 1.39 fold of induction; in the experiment on ARE (HepG2-ARE-C8 cells) (1 μmol/L), 1.39 fold of induction; in the experiment with ARE (HepG2-ARE-C8 cells) (10 μmol/L), 2.07 fold of induction. In addition, in experiment [1], the half-inhibitory concentration (IC50) came out at 320 nM.
On to `COc1cc(OC)c(S(=O)(=O)N(CC(=O)O)c2ccc(OC(C(=O)O)c3ccc(F)cc3)c3ccccc23)c(OC)c1` (stereo not shown) [Compound I-18], for which the “Luciferase reporter activity (fold of induction)” value is given as 1.03 fold of induction in the experiment with ARE (HepG2-ARE-C8 cells) (0.1 μmol/L), 1.42 fold of induction with ARE (HepG2-ARE-C8 cells) (1 μmol/L) and 1.57 fold of induction with ARE (HepG2-ARE-C8 cells) (10 μmol/L). The same molecule showed an IC50 in experiment [1] of 310 nM.
For `COc1ccc(C(Oc2ccc(N(Cc3nn[nH]n3)S(=O)(=O)c3c(C)cc(C)cc3C)c3ccccc23)C(=O)O)cc1` (stereo not shown) [Compound I-19, 2-(4-((N-(2H-tetrazol-5-yl)methyl)-2,4,6-trimethylbenzenesulfonamido)naphthalen-1-oxy)-(4-methoxyphenyl)acetic acid], in that order: 0.97 fold of induction, 1.43 fold of induction, 2.58 fold of induction and 140 nM.
Turning to `CC(C)(C)c1cc(O)ccc1O` [tBHQ, t-butylhydroquinone, reference compound], the “Luciferase reporter activity (fold of induction)” value is recorded as 1.46 fold of induction in the experiment with ARE (HepG2-ARE-C8 cells) (0.1 μmol/L), 1.38 fold of induction in the experiment with ARE (HepG2-ARE-C8 cells) (1 μmol/L) and 3.61 fold of induction in the experiment on ARE (HepG2-ARE-C8 cells) (10 μmol/L).

(Values after patent publication US10442759B2, “1-sulfonamido-4-aryloxy compounds, and preparation method and medicinal application thereof” (priority 2016, dated 2019).)
